Laboratory results published in PubChem BioAssay AID256 (DTP/NCI, 2004).
Where “and” joins values, the source holds several entries; their conditions need not be identical. Equal entries are not always repeated. Inconclusive results and toxic doses are left out. Rule for the calls: active = survival T/C of 150% or more; inactive = T/C below 125% in these data.

Test system: CD2F1 mice, L1210 leukemia ip, survival T/C
Assay: NCI In Vivo Anticancer Drug Screen. Data for tumor model L1210 Leukemia (intraperitoneal) in CD2F1 (CDF1) mice
Details: endpoint: mean survival time, higher = longer survival
Summary of the method: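 Mice carrying a transplanted tumor received test compound or vehicle alone. The value is the measurement in the treated group divided by that in the vehicle-treated control group.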

[1] = dose: 50.0 mg/kg/injection, schedule: Q04DX002 (ip), vehicle: saline with Tween-80
[2] = dose: 100.0 mg/kg/injection, schedule: Q04DX002 (ip), vehicle: saline with Tween-80
[3] = dose: 100.0 mg/kg/injection, schedule: Q01DX009 (ip), vehicle: saline with Tween-80
[4] = dose: 100.0 mg/kg/injection, schedule: Q01DX001 (ip), vehicle: saline
[5] = dose: 200.0 mg/kg/injection, schedule: Q01DX001 (ip), vehicle: saline
[6] = dose: 400.0 mg/kg/injection, schedule: Q01DX001 (ip), vehicle: saline
[7] = dose: 100.0 mg/kg/injection, schedule: Q04DX003 (ip), vehicle: saline
[8] = dose: 200.0 mg/kg/injection, schedule: Q01DX009 (ip), vehicle: saline with Tween-80
[9] = dose: 200.0 mg/kg/injection, schedule: Q04DX003 (ip), vehicle: saline
[10] = dose: 400.0 mg/kg/injection, schedule: Q04DX003 (ip), vehicle: saline

Measured: T/C

CC12CCC(=O)C=C1CCC1C2C(=O)CC2(C)C1CCC2(O)C(=O)Cn1c(=O)[nH]cc(F)c1=O (stereo not given)
inactive: dose: 12.5 mg/kg/injection, schedule: Q04DX003 (ip), vehicle: Klucel (hydroxypropylcellulose) (HPC) 103 % of control | dose: 25.0 mg/kg/injection, schedule: Q04DX003 (ip), vehicle: Klucel (hydroxypropylcellulose) (HPC) 97 % of control | dose: 50.0 mg/kg/injection, schedule: Q04DX003 (ip), vehicle: Klucel (hydroxypropylcellulose) (HPC) 100 % of control | dose: 100.0 mg/kg/injection, schedule: Q04DX003 (ip), vehicle: Klucel (hydroxypropylcellulose) (HPC) 97 % of control | dose: 200.0 mg/kg/injection, schedule: Q04DX003 (ip), vehicle: Klucel (hydroxypropylcellulose) (HPC) 97 % of control

CC1CCS(=O)(=O)CC1.[Cl][Hg][Cl]
inactive: dose: 0.62 mg/kg/injection, schedule: Q04DX003 (ip), vehicle: saline 104 % of control | dose: 1.25 mg/kg/injection, schedule: Q04DX003 (ip), vehicle: saline 106 % of control

O=C1C2CCN(CC2)C1CN1CCC2(CC1)C(=O)NCN2c1ccccc1 (stereo not given)
inactive: [1] 93 % of control | [2] 112 % of control

O=S(OCC1COS(=O)O1)OCC1COS(=O)O1 (stereo not given)
inactive: dose: 100.0 mg/kg/injection, schedule: Q01DX001 (ip), vehicle: saline sonified 106 % of control | dose: 200.0 mg/kg/injection, schedule: Q01DX001 (ip), vehicle: saline sonified 97 % of control | dose: 400.0 mg/kg/injection, schedule: Q01DX001 (ip), vehicle: saline sonified 104 % of control

Cc1c(Cl)cccc1NC(=O)Oc1ccc(Cl)cc1Cl
inactive: dose: 100.0 mg/kg/injection, schedule: Q04DX003 (ip), vehicle: saline with Tween-80 95 % of control | dose: 200.0 mg/kg/injection, schedule: Q04DX003 (ip), vehicle: saline with Tween-80 97 % of control

OC(C=C(C(F)(F)F)C(F)(F)F)c1cccs1 (stereo not given)
inactive: [3] 95 % of control

O=C(O)c1ccc(Cl)cc1Nc1ccc(O)cc1
inactive: dose: 25.0 mg/kg/injection, schedule: Q04DX002 (ip), vehicle: saline with Tween-80 96 % of control | [1] 116 % of control | [2] 101 % of control and 102 % of control

CC(=O)OCC1CCCN1C(C)=O (stereo not given)
inactive: [4] 97 % of control | [5] 97 % of control | [6] 97 % of control

COC(=O)C(=O)O
inactive: [3] 93 % of control | [7] 95 % of control | [8] 95 % of control | [9] 104 % of control | [10] 93 % of control

Cc1cc(C)c(SC2c3ccccc3-c3ccccc32)c(C)c1
inactive: [4] 94 % of control | [7] 98 % of control | [5] 95 % of control | [9] 90 % of control | [6] 94 % of control | [10] 97 % of control

O=C(O)/C=C/C(=O)NCc1ccccc1
inactive: [3] 104 % of control | [8] 94 % of control | dose: 400.0 mg/kg/injection, schedule: Q01DX009 (ip), vehicle: saline with Tween-80 98 % of control

NC(=O)c1c2ccccc2nn1C1OC(CO)C(O)C1O (stereo not given)
inactive: dose: 100.0 mg/kg/injection, schedule: Q01DX005 (ip), vehicle: saline 96 % of control | dose: 200.0 mg/kg/injection, schedule: Q01DX005 (ip), vehicle: saline 102 % of control

CN(C)c1nc(F)nc2c1ncn2C1OC(CO)C(O)C1O (stereo not given)
inactive: dose: 75.0 mg/kg/injection, schedule: Q01DX001 (ip), vehicle: other 100 % of control | dose: 150.0 mg/kg/injection, schedule: Q01DX001 (ip), vehicle: other 109 % of control | dose: 300.0 mg/kg/injection, schedule: Q01DX001 (ip), vehicle: other 109 % of control

NC(N)=NCCCC(NC(c1ccccc1)(c1ccccc1)c1ccccc1)C(=O)O (stereo not given)
inactive: [4] 88 % of control | [5] 92 % of control | [6] 98 % of control

O=[N+]([O-])c1cc(-c2nnc(-c3ccc(Cl)c([N+](=O)[O-])c3)o2)ccc1Cl
inactive: [1] 100 % of control | [2] 100 % of control | dose: 200.0 mg/kg/injection, schedule: Q04DX002 (ip), vehicle: saline with Tween-80 96 % of control | dose: 400.0 mg/kg/injection, schedule: Q04DX002 (ip), vehicle: saline with Tween-80 100 % of control

O=C1NC(=O)C(=C/C=C/c2ccccc2)C(=O)N1
inactive: dose: 12.5 mg/kg/injection, schedule: Q01DX009 (ip), vehicle: saline with Tween-80 97 % of control | dose: 25.0 mg/kg/injection, schedule: Q01DX009 (ip), vehicle: saline with Tween-80 94 % of control | dose: 50.0 mg/kg/injection, schedule: Q01DX009 (ip), vehicle: saline with Tween-80 91 % of control and 103 % of control
